Measurements reported in US11771738B2 (Zoetis Services LLC, priority 2018, dated 2023).
Where two headings read alike, the source gives them in different places.

How the values were obtained:
Assay type in all cases: cell-based
[1] = tested on: D. immitis L4 larvae; assay: Dirofilaria immitis, L4 Stage (DiL4) In Vitro Assay; details: for minimal effective concentration: Dirofilaria immitis, 72 h, read-out: DiL4 MED, Minimum Effective Dose, D. immitis L4 larvae motility, in vitro; for DiMf/DiL4: larval stage selectivity, ratio of DiMf MED to DiL4 MED
[2] = tested on: third stage larvae of Haemonchus contortus; assay: Haemonchus contortus, Larvae Stage 3 (HcL3) In Vitro Assay; details: Haemonchus contortus, 96 h
[3] = tested on: microfilariae of Dirofilaria immitis; assay: Dirofilaria immitis, Microfilaria (DiMf) In Vitro Assay; details: Dirofilaria immitis, 72 h, read-out: DiMf MED, Minimum Effective Dose, D. immitis microfilariae motility, in vitro
[4] = read-out: HcL3 MED, Minimum Effective Dose, H. contortus third stage larvae, approximately 96 hours
[5] = read-out: HcL3 MED, Haemonchus contortus third stage larvae in vitro, class mark appended to the Ex # in Table 3
[6] = read-out: HcL3 MED, approximately 96 hours incubation, multiple-resistant field isolate

| SMILES | minimal effective concentration [1] [µM] | DiMf/DiL4 [1] | minimal effective concentration [2, 4] [µM] | minimal effective concentration [3] [µM] | minimal effective concentration [2, 5] [µM] | minimal effective concentration [2, 6] [µM] |
| --- | --- | --- | --- | --- | --- | --- |
| COc1ccsc1Cc1ccc(C[C@H]2OC(=O)[C@H](CC(C)C)N(C)C(=O)[C@@H](C)OC(=O)[C@H](CC(C)C)N(C)C(=O)[C@@H](Cc3ccc(Cc4sccc4OC)cc3)OC(=O)[C@H](CC(C)C)N(C)C(=O)[C@@H](C)OC(=O)[C@H](CC(C)C)N(C)C2=O)cc1 [Example 3-110, (3S,6R,9S,12R,15S,18R,21S,24R)-3,9,15,21-tetraisobutyl-6,18-bis(4-((3-methoxythiophen-2-yl)methyl)benzyl)-4,10,12,16,22,24-hexamethyl-1,7,13,19-tetraoxa-4,10,16,22-tetraazacyclotetracosan-2,5,8,11,14,17,20,23-octaone] | 0.0001 | 300 | > 100 | 0.03 |  |  |
| CC(C)C[C@H]1C(=O)O[C@H](Cc2ccc(Cc3scnc3Cl)cc2)C(=O)N(C)[C@@H](CC(C)C)C(=O)O[C@H](C)C(=O)N(C)[C@@H](CC(C)C)C(=O)O[C@H](Cc2ccc(Cc3scnc3Cl)cc2)C(=O)N(C)[C@@H](CC(C)C)C(=O)O[C@H](C)C(=O)N1C [Example 3-112, (3S,6R,9S,12R,15S,18R,21S,24R)-6,18-bis(4-((4-chlorothiazol-5-yl)methyl)benzyl)-3,9,15,21-tetraisobutyl-4,10,12,16,22,24-hexamethyl-1,7,13,19-tetraoxa-4,10,16,22-tetraazacyclotetracosan-2,5,8,11,14,17,20,23-octaone] | 3e-05 | 33.3 | 1 | 0.001 | < 1 | ≤ 1 |
| COc1ncc(Cc2ccc(C[C@H]3OC(=O)[C@H](CC(C)C)N(C)C(=O)[C@@H](C)OC(=O)[C@H](CC(C)C)N(C)C(=O)[C@@H](Cc4ccc(Cc5cnc(OC)c(F)c5)cc4)OC(=O)[C@H](CC(C)C)N(C)C(=O)[C@@H](C)OC(=O)[C@H](CC(C)C)N(C)C3=O)cc2)cc1F [Example 3-118, (3S,6R,9S,12R,15S,18R,21S,24R)-6,18-bis(4-((5-fluoro-6-methoxypyridin-3-yl)methyl)benzyl)-3,9,15,21-tetraisobutyl-4,10,12,16,22,24-hexamethyl-1,7,13,19-tetraoxa-4,10,16,22-tetraazacyclotetracosan-2,5,8,11,14,17,20,23-octaone] | 0.001 | 100 | > 100 | 0.1 |  |  |
| Cc1nnsc1Cc1ccc(C[C@H]2OC(=O)[C@H](CC(C)C)N(C)C(=O)[C@@H](C)OC(=O)[C@H](CC(C)C)N(C)C(=O)[C@@H](Cc3ccc(Cc4snnc4C)cc3)OC(=O)[C@H](CC(C)C)N(C)C(=O)[C@@H](C)OC(=O)[C@H](CC(C)C)N(C)C2=O)cc1 [Example 3-120, (3S,6R,9S,12R,15S,18R,21S,24R)-3,9,15,21-tetraisobutyl-4,6,10,16,18,22-hexamethyl-12,24-bis(4-((4-methyl-1,2,3-thiadiazol-5-yl)methyl)benzyl)-1,7,13,19-tetraoxa-4,10,16,22-tetraazacyclotetracosan-2,5,8,11,14,17,20,23-octaone] | 0.0001 | 4 | 1 | 0.0004 | < 1 | ≤ 1 |
| COc1ccc(Cc2ccc(C[C@H]3OC(=O)[C@H](CC(C)C)N(C)C(=O)[C@@H](C)OC(=O)[C@H](CC(C)C)N(C)C(=O)[C@@H](Cc4ccc(Cc5ccc(OC)nc5C)cc4)OC(=O)[C@H](CC(C)C)N(C)C(=O)[C@@H](C)OC(=O)[C@H](CC(C)C)N(C)C3=O)cc2)c(C)n1 [Example 3-121, (3S,6R,9S,12R,15S,18R,21S,24R)-3,9,15,21-tetraisobutyl-6,18-bis(4-((6-methoxy-2-methylpyridin-3-yl)methyl)benzyl)-4,10,12,16,22,24-hexamethyl-1,7,13,19-tetraoxa-4,10,16,22-tetraazacyclotetracosan-2,5,8,11,14,17,20,23-octaone] | 5e-05 | 60 | 1.8 | 0.003 | 1 to 3.3 |  |
| Cc1csc(Cc2ccc(C[C@H]3OC(=O)[C@H](CC(C)C)N(C)C(=O)[C@@H](C)OC(=O)[C@H](CC(C)C)N(C)C(=O)[C@@H](Cc4ccc(Cc5cc(C)cs5)cc4)OC(=O)[C@H](CC(C)C)N(C)C(=O)[C@@H](C)OC(=O)[C@H](CC(C)C)N(C)C3=O)cc2)c1 [Example 3-124, (3S,6R,9S,12R,15S,18R,21S,24R)-3,9,15,21-tetraisobutyl-4,6,10,16,18,22-hexamethyl-12,24-bis(4-((4-methylthiophen-2-yl)methyl)benzyl)-1,7,13,19-tetraoxa-4,10,16,22-tetraazacyclotetracosan-2,5,8,11,14,17,20,23-octaone] | 0.001 | 100 | 0.3 | 0.1 | < 1 | ≤ 1 |
| CC(C)C[C@H]1C(=O)O[C@H](Cc2ccc(Cc3sccc3Br)cc2)C(=O)N(C)[C@@H](CC(C)C)C(=O)O[C@H](C)C(=O)N(C)[C@@H](CC(C)C)C(=O)O[C@H](Cc2ccc(Cc3sccc3Br)cc2)C(=O)N(C)[C@@H](CC(C)C)C(=O)O[C@H](C)C(=O)N1C [Example 3-125, (3S,6R,9S,12R,15S,18R,21S,24R)-6,18-bis(4-((3-bromothiophen-2-yl)methyl)benzyl)-3,9,15,21-tetraisobutyl-4,10,12,16,22,24-hexamethyl-1,7,13,19-tetraoxa-4,10,16,22-tetraazacyclotetracosan-2,5,8,11,14,17,20,23-octaone] | < 0.0002 | >150 | > 100 | 0.03 |  |  |
| CC(C)C[C@H]1C(=O)O[C@H](Cc2ccc([C@H](O)c3sccc3Br)cc2)C(=O)N(C)[C@@H](CC(C)C)C(=O)O[C@H](C)C(=O)N(C)[C@@H](CC(C)C)C(=O)O[C@H](Cc2ccc([C@@H](O)c3sccc3Br)cc2)C(=O)N(C)[C@@H](CC(C)C)C(=O)O[C@H](C)C(=O)N1C [Example 3-132, (3S,6R,9S,12R,15S,18R,21S,24R)-6-(4-((R)-(3-bromothiophen-2-yl)(hydroxy)methyl)benzyl)-18-(4-((S)-(3-bromothiophen-2-yl)(hydroxy)methyl)benzyl)-3,9,15,21-tetraisobutyl-4,10,12,16,22,24-hexamethyl-1,7,13,19-tetraoxa-4,10,16,22-tetraazacyclotetracosan-2,5,8,11,14,17,20,23-octaone] | 0.0004 | 25 | > 10 | 0.01 |  |  |
| COc1cc(C)c(Cc2ccc(C[C@H]3OC(=O)[C@H](CC(C)C)N(C)C(=O)[C@@H](C)OC(=O)[C@H](CC(C)C)N(C)C(=O)[C@@H](Cc4ccc(Cc5cnc(OC)cc5C)cc4)OC(=O)[C@H](CC(C)C)N(C)C(=O)[C@@H](C)OC(=O)[C@H](CC(C)C)N(C)C3=O)cc2)cn1 [Example 3-133, (3S,6R,9S,12R,15S,18R,21S,24R)-3,9,15,21-tetraisobutyl-6,18-bis(4-((6-methoxy-4-methylpyridin-3-yl)methyl)benzyl)-4,10,12,16,22,24-hexamethyl-1,7,13,19-tetraoxa-4,10,16,22-tetraazacyclotetracosan-2,5,8,11,14,17,20,23-octaone] | 0.0003 | 66.7 | 57 | 0.02 |  |  |
| CC(C)C[C@H]1C(=O)O[C@H](Cc2ccc(Cc3cnco3)cc2)C(=O)N(C)[C@@H](CC(C)C)C(=O)O[C@H](C)C(=O)N(C)[C@@H](CC(C)C)C(=O)O[C@H](Cc2ccc(Cc3cnco3)cc2)C(=O)N(C)[C@@H](CC(C)C)C(=O)O[C@H](C)C(=O)N1C [Example 3-148, (3S,6R,9S,12R,15S,18R,21S,24R)-3,9,15,21-tetraisobutyl-4,6,10,16,18,22-hexamethyl-12,24-bis(4-(oxazol-5-ylmethyl)benzyl)-1,7,13,19-tetraoxa-4,10,16,22-tetraazacyclotetracosan-2,5,8,11,14,17,20,23-octaone] | 0.0003 | 3.3 | 3 | 0.001 | 1 to 3.3 |  |
| Cc1ncsc1Cc1ccc(C[C@H]2OC(=O)[C@H](CC(C)C)N(C)C(=O)[C@@H](C)OC(=O)[C@H](CC(C)C)N(C)C(=O)[C@@H](Cc3ccc(Cc4scnc4C)cc3)OC(=O)[C@H](CC(C)C)N(C)C(=O)[C@@H](C)OC(=O)[C@H](CC(C)C)N(C)C2=O)cc1 [Example 3-155, (3S,6R,9S,12R,15S,18R,21S,24R)-3,9,15,21-tetraisobutyl-4,6,10,16,18,22-hexamethyl-12,24-bis(4-((4-methylthiazol-5-yl)methyl)benzyl)-1,7,13,19-tetraoxa-4,10,16,22-tetraazacyclotetracosan-2,5,8,11,14,17,20,23-octaone] | 2e-05 | 5 | 0.5 | 0.0001 | < 1 | ≤ 1 |
| CC(C)C[C@H]1C(=O)O[C@H](Cc2ccc(Cc3ccns3)cc2)C(=O)N(C)[C@@H](CC(C)C)C(=O)O[C@H](C)C(=O)N(C)[C@@H](CC(C)C)C(=O)O[C@H](Cc2ccc(Cc3ccns3)cc2)C(=O)N(C)[C@@H](CC(C)C)C(=O)O[C@H](C)C(=O)N1C [Example 3-156, (3S,6R,9S,12R,15S,18R,21S,24R)-3,9,15,21-tetraisobutyl-6,18-bis(4-(isothiazol-5-ylmethyl)benzyl)-4,10,12,16,22,24-hexamethyl-1,7,13,19-tetraoxa-4,10,16,22-tetraazacyclotetracosan-2,5,8,11,14,17,20,23-octaone] | 0.0001 | 5 | 5.6 | 0.0005 |  |  |
